Reference: patent publication US4814432A, “Inhibitor of ribonucleotide reductase” (priority 1987, dated 1989)
Where a SMILES comes first, the peptide text is derived from it. Where no end group is shown, it is not given here. [ ]: non-standard residue; d: D form. The star is where a group is joined. Desaminotyrosyl = O=C(CCc1ccc(O)cc1)*; NMeY = CN[C@@H](Cc1ccc(O)cc1)C(=O)O; Aib = CC(C)(N)C(=O)O; Ava = NCCCCC(=O)O

Experiments:
[1] = molecular target: Herpes Simplex Virus Ribonucleotide Reductase (HSV RR) (Human herpesvirus 2, UniProt P89462); assay: biochemical
Experimental: HSV RR was purified from Baby Hamster Kidney cells that were cultured with HSV2 Strain 186. After infection, cells were harvested and lysed. Crude HSV RR was prepared as described by Huszar et al., J. Virol. 37: 580-588(1981) then subjected to further purification by hydroxyapatite column chromotography.
HSV RR activity was determined as the ability of the enzyme to catalyze the reduction of tritiated cytidine-diphosphate to deoxyribo-cytidine-diphosphate in 30 minutes at 37° C. in the presence of dithiothreitol and MgCl2. Activity of oligopeptide inhibitors was determined by adding them to the reaction mix at the beginning of the incubation. Enzyme was not preincubated with inhibitor.
Oligopeptides were synthesized by either the solid phase method of Merrified, op. cit., or by FMOC chemistry (John Morrow Stewart and Janis Dillaha Young, "Solid Phase Peptide Synthesis," 2nd ed, 1984, Pierce Chemical Co., Rockford, IL.) and purified to >98% homogeneity by reverse phase HPLC and recovered by lyophilization as trifluoroacetic acid salts. These were analyzed for amino acid composition and in some cases sequenced. Dry peptides were resuspended in 100 mM HEPES (pH 8.0) at about 2 mM, relyophilized, and stored in aliquots at -80° C. Immediately prior to use they were rehydrated with distilled H2 O and centrifuged to remove any undissolved peptide. The concentrations of these stock solutions were then determined by measuring A291 nm at basic pH (ε=2.55) for tyrosine-containing peptides and by quantitative amino acid composition for those peptides without tyrosine.

[2] = molecular target: ribonucleotide reductase enzyme of herpes simplex virus (Human herpesvirus 1, UniProt P08543); conditions: Dutia et al. and Cohen et al., Nature 321 (1986); cited from earlier work
[3] = molecular target: T1, ribonucleotide reductase enzyme of herpes simplex virus (Human herpesvirus 1, UniProt P08543); conditions: Dutia et al. and Cohen et al., Nature 321 (1986); cited from earlier work; remark: listed apart in the source
T1 sequence (P08543 whole entry, looked up): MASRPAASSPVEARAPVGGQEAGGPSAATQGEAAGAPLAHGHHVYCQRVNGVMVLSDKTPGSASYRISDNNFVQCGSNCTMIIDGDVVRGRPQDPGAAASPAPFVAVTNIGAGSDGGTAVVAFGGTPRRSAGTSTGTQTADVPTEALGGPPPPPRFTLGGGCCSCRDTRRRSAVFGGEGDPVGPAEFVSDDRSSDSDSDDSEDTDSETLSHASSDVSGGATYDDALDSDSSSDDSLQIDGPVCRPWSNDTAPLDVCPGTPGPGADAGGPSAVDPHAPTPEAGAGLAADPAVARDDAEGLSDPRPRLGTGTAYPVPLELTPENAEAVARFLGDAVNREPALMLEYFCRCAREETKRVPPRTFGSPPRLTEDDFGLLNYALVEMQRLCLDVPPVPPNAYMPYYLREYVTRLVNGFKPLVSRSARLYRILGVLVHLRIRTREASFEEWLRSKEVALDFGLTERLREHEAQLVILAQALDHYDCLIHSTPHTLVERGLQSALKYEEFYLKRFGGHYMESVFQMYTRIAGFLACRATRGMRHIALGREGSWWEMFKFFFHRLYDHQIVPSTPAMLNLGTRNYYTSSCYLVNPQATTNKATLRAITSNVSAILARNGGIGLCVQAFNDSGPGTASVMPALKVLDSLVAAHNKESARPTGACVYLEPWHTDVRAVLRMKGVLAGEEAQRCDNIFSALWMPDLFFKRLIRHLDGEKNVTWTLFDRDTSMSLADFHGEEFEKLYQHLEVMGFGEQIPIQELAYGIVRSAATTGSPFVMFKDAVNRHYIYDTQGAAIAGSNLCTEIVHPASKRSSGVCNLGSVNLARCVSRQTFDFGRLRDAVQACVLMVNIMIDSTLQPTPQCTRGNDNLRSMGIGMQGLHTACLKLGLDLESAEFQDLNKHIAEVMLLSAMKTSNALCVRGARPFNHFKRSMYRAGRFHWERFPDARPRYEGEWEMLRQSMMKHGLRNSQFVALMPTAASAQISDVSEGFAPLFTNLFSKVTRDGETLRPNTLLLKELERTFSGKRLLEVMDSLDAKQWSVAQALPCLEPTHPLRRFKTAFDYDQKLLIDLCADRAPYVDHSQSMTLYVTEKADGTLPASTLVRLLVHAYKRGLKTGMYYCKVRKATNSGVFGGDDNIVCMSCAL

Chain of Herpes Simplex Virus Ribonucleotide Reductase (HSV RR) (P89462 whole entry): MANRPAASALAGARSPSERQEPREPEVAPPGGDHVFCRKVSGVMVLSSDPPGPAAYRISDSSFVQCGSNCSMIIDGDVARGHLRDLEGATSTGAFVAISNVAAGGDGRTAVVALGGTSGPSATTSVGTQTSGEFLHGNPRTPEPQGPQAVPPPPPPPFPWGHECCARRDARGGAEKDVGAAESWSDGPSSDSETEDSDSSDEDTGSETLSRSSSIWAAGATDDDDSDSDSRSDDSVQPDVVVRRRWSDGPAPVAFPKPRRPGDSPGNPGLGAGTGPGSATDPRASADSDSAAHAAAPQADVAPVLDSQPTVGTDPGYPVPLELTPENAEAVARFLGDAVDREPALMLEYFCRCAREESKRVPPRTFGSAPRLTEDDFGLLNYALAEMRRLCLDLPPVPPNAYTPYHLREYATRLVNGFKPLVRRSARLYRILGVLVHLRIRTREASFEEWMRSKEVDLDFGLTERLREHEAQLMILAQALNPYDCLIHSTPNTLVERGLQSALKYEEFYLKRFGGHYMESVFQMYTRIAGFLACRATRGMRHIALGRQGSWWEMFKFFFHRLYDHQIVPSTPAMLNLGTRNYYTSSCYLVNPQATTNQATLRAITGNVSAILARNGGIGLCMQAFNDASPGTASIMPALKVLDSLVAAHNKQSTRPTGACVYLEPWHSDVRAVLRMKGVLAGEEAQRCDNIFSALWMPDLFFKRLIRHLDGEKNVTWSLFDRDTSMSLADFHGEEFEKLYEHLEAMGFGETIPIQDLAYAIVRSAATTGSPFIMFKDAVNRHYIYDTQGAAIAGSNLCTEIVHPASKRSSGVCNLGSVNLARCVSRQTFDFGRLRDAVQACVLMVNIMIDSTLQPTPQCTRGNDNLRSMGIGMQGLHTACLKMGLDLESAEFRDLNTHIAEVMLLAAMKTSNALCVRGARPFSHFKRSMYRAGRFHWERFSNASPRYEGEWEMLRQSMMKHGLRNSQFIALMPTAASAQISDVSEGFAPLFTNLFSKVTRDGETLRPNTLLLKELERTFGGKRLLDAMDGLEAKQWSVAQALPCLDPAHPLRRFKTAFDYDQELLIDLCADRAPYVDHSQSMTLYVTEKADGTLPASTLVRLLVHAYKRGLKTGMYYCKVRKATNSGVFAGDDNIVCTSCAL

Row | Compound | IC50 [1] | also measured
1 | CC(C)C[C@H](NC(=O)[C@H](CC(=O)O)NC(=O)[C@H](CC(N)=O)NC(=O)[C@@H](NC(=O)[C@@H](NC(=O)CCc1ccc(O)cc1)C(C)C)C(C)C)C(=O)O [desNH2Y V V N D L] | 24 µM | –
2 | CC(C)C[C@H](NC(=O)[C@H](CC(=O)O)NC(=O)[C@H](CC(N)=O)NC(=O)[C@@H](NC(=O)[C@@H](NC(=O)[C@H](Cc1ccc(O)cc1)NC(=O)CCCCNC(=O)[C@@H](N)Cc1ccc(O)cc1)C(C)C)C(C)C)C(=O)O [YBY V V N D L] (H-Y[Ava]YVVNDL-OH) | 20 µM | –
3 | CC(C)C[C@H](NC(=O)[C@H](CC(=O)O)NC(=O)[C@H](CC(N)=O)NC(=O)[C@@H](NC(=O)[C@@H](NC(=O)[C@H](C)NC(=O)CCc1ccc(O)cc1)C(C)C)C(C)C)C(=O)O [desNH2YA V V N D L] (Desaminotyrosyl-AVVNDL-OH) | 160 µM | –
4 | WVVNDL [W V V N D L] | 17 µM | –
5 | COc1ccc(C[C@H](N)C(=O)N[C@H](C(=O)N[C@H](C(=O)N[C@@H](CC(N)=O)C(=O)N[C@@H](CC(=O)O)C(=O)N[C@@H](CC(C)C)C(=O)O)C(C)C)C(C)C)cc1 [MeOY V V N D L] (H-Y(Me)VVNDL-OH) | 20 µM | –
6 | AAAVVNDL [A AA V V N D L] | 77 µM | –
7 | AVVDDL [A V V D D L] | 195 µM | –
8 | HVVNDL [H V V N D L] | 46 µM | –
9 | FVVNDL [F V V N D L] | 65 µM | –
10 | YAGYVVNDL [Y A G Y V V N D L] | 8 µM | –
11 | KKLEEFLKVVNDL [K K L E E FLK V V N D L] | 200 µM | –
12 | CC(C)C[C@H](NC(=O)[C@H](CC(=O)O)NC(=O)C(C)(C)NC(=O)[C@@H](NC(=O)[C@@H](NC(=O)[C@H](C)NC(=O)CNC(=O)[C@H](C)NC(=O)[C@@H](N)Cc1ccc(O)cc1)C(C)C)C(C)C)C(=O)O [Y A G A V V J D L] (H-YAGAVV[Aib]DL-OH) | 200 µM | –
13 | YAAVVNDL [YAA V V N D L] | 112 µM | –
14 | Tyr Ala Gly Ala Val Val Asn Asp Leu | – | inhibition in vitro of enzyme activity [2]: inhibited
15 | Ac-YVVNDL [AcY V V N D L] | 18 µM | –
16 | YGAVVNDL [8-desalanine homolog of the nonapeptide, Dutia et al] | – | inhibition in vitro of enzyme activity [3]: inhibited
17 | YAPAVVNDL [Y A PA V V N D L] | 14 µM | –
18 | YVVNDL [Y V V N D L] | 15 µM | –
19 | CN[C@@H](Cc1ccc(O)cc1)C(=O)N[C@H](C(=O)N[C@H](C(=O)N[C@@H](CC(N)=O)C(=O)N[C@@H](CC(=O)O)C(=O)N[C@@H](CC(C)C)C(=O)O)C(C)C)C(C)C [MeNY V V N D L] (H-[NMeY]VVNDL-OH) | 12 µM | –
20 | FAGAVVNDL [FA G A V V N D L] | 56 µM | –
